{"source": "patent US9902709B2", "about": "“Polysubstituted pyridine compound, preparation method, use and pharmaceutical composition” (PEKING UNIVERSITY FOUNDER GROUP CO., LTD., priority 2014, dated 2018)", "key": {"[1]": {"test_system": "human colon cancer HCT-116 transplantation", "assay": "Effect on tumor weight of human colon cancer HCT-116 transplantation nude mice (Comparative Experiment Example 2)", "type": "in vivo", "conditions": "QD × 17 day, sorafenib as p-toluenesulfonate, FD-1210005 free form", "source_text": "Comparative Experiment Example 2\nUnder aseptic conditions, the well grown human HCT-116 cell suspension in logarithmic growth phase was used to inoculate nude mouse at axillary cavity of right forelimb subcutaneously via an injector. The tumor growth state was observed regularly until the tumor grew to a volume of 100˜300 mm^3.\n48 Tumor-bearing mice with a tumor volume of 100˜300 mm^3 were selected and divided into 6 groups, which were 1 solvent control group, 3 positive control groups, and 2 test sample groups. Both the positive control group and the test sample group were administered intragastrically once a day; the solvent control group was administered with 12.5% ethanol & 12.5% water solution of polyoxyethylene castor oil once a day; intragastrical volume was 10 mL/kg.\nIn the period of administration, tumor diameter was measured twice every week, tumor volume was calculated, and animal body weight was recorded. Animal state was observed when administered, and abnormal state was recorded.\nAnimal was sacrificed with CO2, and tumor mass was peeled off, weighed, and photographed. After photographed, each tumor mass was cut into two parts, wherein one was stored in 4% paraformaldehyde, and the other was packaged into a freezing tube, and frozen in liquid nitrogen. Animal was subjected to gross anatomy, and organs were observed by eyes to find if they were normal or not.\nObservation Indexes: Tumor weight inhibiting rate (IR)=(WC−WT)/WC\nwherein WC and WT represented the average tumor weight of solvent control group and the average tumor weight of drug administration group, respectively.\nExperimental data was subjected to calculation and relevant statistic processing by Microsoft Office Excel 2003 software. Unless otherwise specified, data was represented as Mean±Standard Error (Mean±S.E.), and t-test is used in the comparison between two groups."}, "[2]": {"test_system": "786-O humanized renal clear cell xenograft", "assay": "Tumor-inhibiting effect on 786-O xenograft tumor-bearing mice (Experimental Example 4)", "type": "in vivo, SCID-Beige nude mice", "conditions": "QD × 14 days, free form; for TGI: from tumor weight", "description": "786-O cells were cultured in RPMI-1640 culture medium containing inactivated 10% fetal bovine serum, 100 Um′ penicillin and 100 μg/ml streptomycin as well as 2 mM glutamine in an incubator at 37° C., 5% CO2. During cell culture, the initial concentration was 5×10^5 cells/ml, and the cells were separated into other bottles every 3 to 4 days when the cells reached a cell density of 100%. The tumor cells in logarithmic growth phase were used in tumor inoculation in vivo.\nFemale SCID-Beige nude mice (SPF grade) was inoculated subcutaneously at right lateral thorax with 786-O tumor cells re-suspended in PBS at 8×10^6 cells/0.1 ml. When the tumor grew into a volume of 800 mm^3, under aseptic conditions, tumor was peeled off. The well grown tumor tissues were cut into tumor mass with a size of 2×2×2 mm^3, and then were used to inoculate animal subcutaneously. When the tumor grew to a volume of about 100 mm^3, the mice were grouped and administered, 5 groups in total, 8 mice per group.\nThe volume of tumor was measure by using Vernier caliper twice a week. The long diameter and short diameter of tumor were measured. The volume was calculated by the formula: volume=0.5×long diameter×short diameter^2. After the final measurement, the animal was sacrificed and the tumor was peeled off and weighed. Based on the tumor weight of each group, tumor growth-inhibiting rate (TGI) was calculated. […] The data was effectiveness when TGI≧60% and p<0.05 by statistical analysis."}}, "data": [{"compound": "CNC(=O)c1cc(Oc2ccc(NC(=O)Nc3ccc(Cl)c(C(F)(F)F)c3)cc2)ccn1", "note": "[Comparative example 1, Sorafenib, reference compound]", "values": [{"measurement": "Tumor weight Mean ± S.E", "setting": "[1]; 20 mg/kg Ig", "result": "0.5628 ± 0.0617", "unit": "g"}, {"measurement": "Tumor-inhibiting rate", "setting": "[1]; 20 mg/kg Ig", "result": 43.28, "unit": "%"}, {"measurement": "Tumor weight Mean ± S.E", "setting": "[1]; 60 mg/kg Ig", "result": "0.4409 ± 0.0857", "unit": "g"}, {"measurement": "Tumor-inhibiting rate", "setting": "[1]; 60 mg/kg Ig", "result": 55.57, "unit": "%"}]}, {"compound": "Cn1cc(-c2nccc(Oc3ccc(NC(=O)Nc4ccc(Cl)c(C(F)(F)F)c4)cc3)c2Cl)cn1", "note": "[Example 2, 1-(4-chloro-3-(trifluoromethyl)phenyl)-3-(4-(3-chloro-2-(1-methyl-pyrazol-4-yl)-pyridin-4-yl-oxy)phenyl)urea]", "values": [{"measurement": "Tumor weight Mean ± S.E", "setting": "[2]; 10 mg/kg po", "result": "37 ± 20", "unit": "mg"}, {"measurement": "TGI", "setting": "[2]; 10 mg/kg po", "result": 82, "unit": "%"}, {"measurement": "Tumor weight Mean ± S.E", "setting": "[2]; 20 mg/kg po", "result": "32 ± 15", "unit": "mg"}, {"measurement": "TGI", "setting": "[2]; 20 mg/kg po", "result": 85, "unit": "%"}, {"measurement": "Tumor weight Mean ± S.E", "setting": "[2]; 40 mg/kg po", "result": "16 ± 12", "unit": "mg"}, {"measurement": "TGI", "setting": "[2]; 40 mg/kg po", "result": 92, "unit": "%"}]}]}
